The results in this text go back to US10689378B2, “Triazolopyridine compounds and uses thereof” (Novartis AG, priority 2016, dated 2020).

Test [1] deals with T1, EED (1-441)-His protein (Homo sapiens, UniProt O75530).
T1 construct: 30 nM EED (1-441)-His protein
Kind of test: EED-H3K27Me3 peptide competition binding assay by AlphaScreen. Put shortly: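 Serially diluted compound (12 points, 3-fold) incubated 20 min with 30 nM EED(1-441)-His and 15 nM biotin-H3K27Me3(19-33) peptide in 25 mM HEPES pH 8, 0.02% Tween-20, 0.5% BSA. Ni-chelate acceptor/streptavidin donor beads (10 μg/mL each) added, 1 h rt dark; 615 nm emission normalized to controls, dose-response fit for IC50.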
For orientation: In Alpha technology, singlet oxygen from a donor bead excites a nearby acceptor bead.

Test [2] has as its system H3K27 methylation in G401 cell. Kind of test: ELISA (H3K27 methylation) assay in G401 cells. The test is classed as cell-based, human. The settings on record: Homo sapiens. Put shortly: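 G401 cells treated 48 h with 3-fold dilutions (8 or 12 points, top 20 μM). Acid-extracted histones probed by ELISA for H3K27me3 or H3K27me2 with ECL readout, normalized to total H3. Percent inhibition versus DMSO fitted to dose-response curve for IC50.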

The target of test [3] is wild type PRC2 (wtPRC2) complex (Homo sapiens, UniProt O75530). Kind of test: EED LC-MS assay (SAH production by PRC2). The test is classed as biochemical. Put shortly: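 Pentameric PRC2 (EZH2, SUZ12, EED, Rbap48, AEBP), 12 nM final, preincubated 20 min with compound and SAM, then 1.5 μM biotinylated H3K27me0 peptide, 1 μM SAM, pH 8.0, 120 min at rt. SAH quantified by LC-MS/MS with d4-SAH; control-normalized activity fitted for IC50.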

Where [4] appears, read: read-out: (a) IC50, EED Alphascreen binding Qualified.
The mark [5] stands for this setting: G-401, read-out: (c) IC50, ELISA Qualified.
The mark [6] stands for this setting: read-out: (b) IC50, EED LC-MS Qualified.
Where [7] appears, read: EED-H3K27Me3 peptide competition, AlphaScreen, read-out: (a) IC50 EED Alphascreen binding Qualified.
The mark [8] stands for this setting: G-401, H3K27 methylation ELISA, read-out: (c) IC50 ELISA Qualified.
Where [9] appears, read: PRC2 LC-MS assay, read-out: (b) IC50 EED LC-MS Qualified.

SMILES strings stand for the structures. Read-outs that look alike come from different tables or passages of the source.

Sequence of wild type PRC2 (wtPRC2) complex (O75530 whole entry): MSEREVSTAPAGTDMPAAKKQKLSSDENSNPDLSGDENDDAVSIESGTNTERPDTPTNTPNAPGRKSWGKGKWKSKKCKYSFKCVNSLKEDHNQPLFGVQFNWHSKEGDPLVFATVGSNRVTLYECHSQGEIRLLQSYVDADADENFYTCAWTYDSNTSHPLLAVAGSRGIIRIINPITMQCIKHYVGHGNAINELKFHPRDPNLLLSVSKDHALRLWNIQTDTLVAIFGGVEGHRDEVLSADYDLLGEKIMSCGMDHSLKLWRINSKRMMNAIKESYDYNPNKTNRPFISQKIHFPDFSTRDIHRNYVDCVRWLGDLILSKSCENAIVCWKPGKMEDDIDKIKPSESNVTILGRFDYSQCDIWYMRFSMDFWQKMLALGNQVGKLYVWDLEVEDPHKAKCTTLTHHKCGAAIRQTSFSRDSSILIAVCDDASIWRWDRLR
Sequence of wild type PRC2 (wtPRC2) complex (Q15910 whole entry partner): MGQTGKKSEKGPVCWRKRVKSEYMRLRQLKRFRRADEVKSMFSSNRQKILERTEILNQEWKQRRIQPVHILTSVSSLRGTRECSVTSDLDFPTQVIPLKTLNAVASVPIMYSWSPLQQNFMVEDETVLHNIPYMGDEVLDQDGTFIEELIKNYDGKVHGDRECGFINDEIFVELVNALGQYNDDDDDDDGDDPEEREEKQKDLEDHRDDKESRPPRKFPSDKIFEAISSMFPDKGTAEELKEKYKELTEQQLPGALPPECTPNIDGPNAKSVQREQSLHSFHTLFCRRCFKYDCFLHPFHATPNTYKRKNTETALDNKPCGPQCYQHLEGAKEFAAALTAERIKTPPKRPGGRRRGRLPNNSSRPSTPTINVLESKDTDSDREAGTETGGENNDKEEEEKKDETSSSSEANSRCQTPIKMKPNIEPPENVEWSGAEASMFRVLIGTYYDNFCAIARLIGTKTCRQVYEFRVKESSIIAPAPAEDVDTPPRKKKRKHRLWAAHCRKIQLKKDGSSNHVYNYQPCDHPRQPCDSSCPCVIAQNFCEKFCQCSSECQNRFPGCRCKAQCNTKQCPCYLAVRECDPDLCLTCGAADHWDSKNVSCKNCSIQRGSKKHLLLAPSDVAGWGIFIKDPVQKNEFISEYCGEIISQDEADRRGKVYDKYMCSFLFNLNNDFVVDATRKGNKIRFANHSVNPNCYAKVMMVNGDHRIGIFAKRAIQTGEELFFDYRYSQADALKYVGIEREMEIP
Sequence of wild type PRC2 (wtPRC2) complex (Q15022 whole entry partner): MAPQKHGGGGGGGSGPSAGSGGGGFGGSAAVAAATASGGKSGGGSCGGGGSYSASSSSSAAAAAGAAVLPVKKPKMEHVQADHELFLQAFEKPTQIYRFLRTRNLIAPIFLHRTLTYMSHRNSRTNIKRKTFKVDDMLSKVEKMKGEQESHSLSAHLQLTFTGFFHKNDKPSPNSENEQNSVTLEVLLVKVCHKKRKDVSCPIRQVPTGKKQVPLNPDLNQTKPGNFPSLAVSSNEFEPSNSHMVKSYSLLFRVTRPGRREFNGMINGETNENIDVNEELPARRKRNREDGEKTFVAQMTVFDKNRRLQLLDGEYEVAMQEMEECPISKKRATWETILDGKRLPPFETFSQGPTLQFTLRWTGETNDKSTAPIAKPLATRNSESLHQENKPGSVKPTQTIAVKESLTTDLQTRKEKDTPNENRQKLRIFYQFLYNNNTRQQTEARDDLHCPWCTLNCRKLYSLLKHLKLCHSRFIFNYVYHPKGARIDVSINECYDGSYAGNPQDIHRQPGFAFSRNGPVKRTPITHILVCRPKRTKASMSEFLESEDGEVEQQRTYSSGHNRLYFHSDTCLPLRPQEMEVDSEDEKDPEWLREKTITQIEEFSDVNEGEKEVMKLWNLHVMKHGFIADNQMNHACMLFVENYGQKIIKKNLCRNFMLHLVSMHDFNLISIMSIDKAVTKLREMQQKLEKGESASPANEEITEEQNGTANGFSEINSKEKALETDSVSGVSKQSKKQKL
Sequence of wild type PRC2 (wtPRC2) complex (Q09028 whole entry partner): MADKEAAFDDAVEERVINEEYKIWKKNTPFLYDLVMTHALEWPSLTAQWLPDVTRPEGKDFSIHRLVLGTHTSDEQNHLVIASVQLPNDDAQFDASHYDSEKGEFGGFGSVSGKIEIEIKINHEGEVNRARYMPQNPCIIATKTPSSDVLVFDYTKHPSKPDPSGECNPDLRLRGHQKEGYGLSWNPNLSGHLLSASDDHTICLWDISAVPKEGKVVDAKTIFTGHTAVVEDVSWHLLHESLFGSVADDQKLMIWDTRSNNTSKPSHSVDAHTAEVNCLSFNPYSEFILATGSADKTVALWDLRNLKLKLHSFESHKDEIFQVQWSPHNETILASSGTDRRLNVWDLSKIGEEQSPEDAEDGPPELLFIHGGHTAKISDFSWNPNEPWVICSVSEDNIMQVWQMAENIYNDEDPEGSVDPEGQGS
Sequence of wild type PRC2 (wtPRC2) complex (Q6ZN18 whole entry partner): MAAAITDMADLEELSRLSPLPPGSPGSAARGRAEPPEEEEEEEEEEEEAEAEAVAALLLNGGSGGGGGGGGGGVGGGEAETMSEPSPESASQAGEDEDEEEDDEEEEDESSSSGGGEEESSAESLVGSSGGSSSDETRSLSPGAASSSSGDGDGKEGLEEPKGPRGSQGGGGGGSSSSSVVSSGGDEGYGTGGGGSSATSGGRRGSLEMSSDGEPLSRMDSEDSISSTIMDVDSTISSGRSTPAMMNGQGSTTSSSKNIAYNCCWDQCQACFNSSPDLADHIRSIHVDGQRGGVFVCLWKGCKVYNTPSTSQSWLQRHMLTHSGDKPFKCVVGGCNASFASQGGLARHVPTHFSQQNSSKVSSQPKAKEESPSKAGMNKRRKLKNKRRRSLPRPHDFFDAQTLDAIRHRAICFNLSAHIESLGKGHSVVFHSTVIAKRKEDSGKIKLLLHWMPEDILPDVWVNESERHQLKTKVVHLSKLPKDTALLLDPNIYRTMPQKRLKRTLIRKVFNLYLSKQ
T1 sequence (O75530 whole entry): as the sequence (O75530 whole entry) above

Turning to `COc1cccc(F)c1CNc1ccc(-c2cncc(N3CCCC3=O)c2)c2nncn12` [Example 167, 1-(5-(5-((2-fluoro-6-methoxybenzyl)amino)-[1,2,4]triazolo[4,3-a]pyridin-8-yl)pyridin-3-yl)pyrrolidin-2-one], the results for the IC50 in test [1] (setting [4]), in test [2] (setting [5]) and in test [3] (setting [6]) were 13.4 nM, 10.3 nM and 679 nM, respectively.

`COc1ccccc1CNc1ccc(-c2ccc(N3CC(C)N(C)CC3C)nc2)c2nncn12` (stereo not drawn) [Example 168, N-(2-methoxybenzyl)-8-(6-(2,4,5-trimethylpiperazin-1-yl)pyridin-3-yl)-[1,2,4] triazolo[4,3-a]pyridin-5-amine]: the IC50 in test [1] (setting [4]) is 50.5 nM; in test [2] (setting [5]), 105 nM; in test [3] (setting [6]) it was 168 nM.

Consider `COc1cccc(F)c1CNc1ccc(-c2ccc(OCCS(C)(=O)=O)cc2)c2nncn12` [Example 169, N-(2-fluoro-6-methoxybenzyl)-8-(4-(2-(methylsulfonyl)ethoxy)phenyl)-[1,2,4]triazolo[4,3-a] pyridin-5-amine], for which the IC50 in test [1] (setting [4]) turned out to be 84.5 nM; in test [2] (setting [5]), 105 nM; in test [3] (setting [6]), 305 nM.

As to `COc1cccc(F)c1CNc1ccc(-c2c(C)nn(CCO)c2C)c2nncn12` [Example 170, 2-(4-(5-((2-fluoro-6-methoxybenzyl)amino)-[1,2,4]triazolo[4,3-a]pyridin-8-yl)-3,5-dimethyl-1H-pyrazol-1-yl)ethanol], the IC50 in test [1] (setting [4]) was found to be 25.8 nM; in test [2] (setting [5]), 18.6 nM; in test [3] (setting [6]), 67.2 nM.

As for `COc1cccc(F)c1CNc1ccc(-c2ccc(N3CCOCC3)nc2)c2nncn12` [Example 172, N-(2-fluoro-6-methoxybenzyl)-8-(6-morpholinopyridin-3-yl)-[1,2,4]triazolo [4,3-a]pyridin-5-amine], the IC50 in test [1] (setting [7]) was found to be 56.4 nM; in test [2] (setting [8]) it was 111 nM; in test [3] (setting [9]), 162 nM.

With `COc1ccc(-c2ccc(NCc3c(F)cccc3OC)n3cnnc23)cn1` [Example 173, N-(2-fluoro-6-methoxybenzyl)-8-(6-methoxypyridin-3-yl)-[1,2,4]triazolo [4,3-a]pyridin-5-amine], the results for the IC50 in test [1] (setting [7]), in test [2] (setting [8]) and in test [3] (setting [9]) were 36.3 nM, 40.3 nM and 123 nM, respectively.

As for `COc1cccc(F)c1CNc1ccc(-c2ccc(N(C)C)nc2)c2nncn12` [Example 174, 8-(6-(dimethylamino)pyridin-3-yl)-N-(2-fluoro-6-methoxybenzyl)-[1,2,4]triazolo[4,3-a] pyridin-5-amine], the IC50 turned out to be 47.2 nM in test [1] (setting [7]), 76.7 nM in test [2] (setting [8]) and 136 nM in test [3] (setting [9]).

Regarding `COc1cccc(F)c1CNc1ccc(-c2ccnc(CCO)c2)c2nncn12` [Example 175, 2-(4-(5-((2-fluoro-6-methoxybenzyl)amino)-[1,2,4]triazolo[4,3-a]pyridin-8-yl)pyridin-2-yl)ethanol], the IC50 in test [1] (setting [7]) turned out to be 35.9 nM; in test [2] (setting [8]), 23.9 nM; in test [3] (setting [9]), 148 nM.

Regarding `COc1cccc(F)c1CNc1ccc(-c2cccnc2OC)c2nncn12` [Example 176, N-(2-fluoro-6-methoxybenzyl)-8-(2-methoxypyridin-3-yl)-[1,2,4]triazolo [4,3-a]pyridin-5-amine], the values for the IC50 in test [1] (setting [7]), in test [2] (setting [8]) and in test [3] (setting [9]) were 32.9 nM, 58.6 nM and 176 nM, respectively.

Regarding `COc1cccc(F)c1CNc1ccc(-c2ccc(S(C)(=O)=O)cc2F)c2nncn12` [Example 177, 8-(2-fluoro-4-(methylsulfonyl)phenyl)-N-(2-fluoro-6-methoxybenzyl)-[1,2,4]triazolo[4,3-a]pyridin-5-amine], the concentration for half-maximal inhibition (IC50) in test [1] (setting [7]) is 15.8 nM; in test [2] (setting [8]), 12.3 nM; in test [3] (setting [9]), 32.3 nM.

Consider `COc1cccc(F)c1CNc1ccc(-c2ccc(C(=O)N(C)C)cc2F)c2nncn12` [Example 178, 3-fluoro-4-(5-((2-fluoro-6-methoxybenzyl)amino)-[1,2,4]triazolo[4,3-a]pyridin-8-yl)-N,N-dimethyl benzamide], for which the IC50 in test [1] (setting [7]) worked out at 6.5 nM; in test [2] (setting [8]), 6.5 nM; in test [3] (setting [9]), 18.8 nM.

Consider `COc1cccc(F)c1CNc1ccc(-c2ccc(S(=O)(=O)C3CCNCC3)nc2)c2nncn12` [Example 179, N-(2-fluoro-6-methoxybenzyl)-8-(6-(piperidin-4-ylsulfonyl)pyridin-3-yl)-[1,2,4]triazolo[4,3-a]pyridin-5-amine], for which the IC50 is 24.8 nM in test [1] (setting [7]), 13.2 nM in test [2] (setting [8]) and 174 nM in test [3] (setting [9]).

As to `COc1ccccc1CNc1ccc(-c2ccc(N3CCN(C)CC3C)nc2)c2nncn12` (stereo not drawn) [Example 180, 8-(6-(2,4-dimethylpiperazin-1-yl)pyridin-3-yl)-N-(2-methoxybenzyl)-[1,2,4] triazolo[4,3-a]pyridin-5-amine], the IC50 in test [1] (setting [7]) is 55.7 nM; in test [2] (setting [8]) it was 57.9 nM; in test [3] (setting [9]), 171 nM.

Turning to `COc1cccc(F)c1CNc1ccc(-c2cnccc2F)c2nncn12` [Example 181, N-(2-fluoro-6-methoxybenzyl)-8-(4-fluoropyridin-3-yl)-[1,2,4]triazolo[4,3-a] pyridin-5-amine], the IC50 in test [1] (setting [7]) worked out at 11.2 nM; in test [2] (setting [8]), 11.4 nM; in test [3] (setting [9]), 44.2 nM.

`CNC(=O)c1cncc(-c2ccc(NCc3c(F)cccc3OC)n3cnnc23)c1` [Example 182, 5-(5-((2-fluoro-6-methoxybenzyl)amino)-[1,2,4]triazolo[4,3-a]pyridin-8-yl)-N-methylnicotinamide]: the IC50 in test [1] (setting [7]) amounted to 20.4 nM; in test [2] (setting [8]), 16.5 nM; in test [3] (setting [9]), 520 nM.

As for `COc1cccc(F)c1CNc1ccc(-c2ccc(CCO)nc2)c2nncn12` [Example 183, 2-(5-(5-((2-fluoro-6-methoxybenzyl)amino)-[1,2,4]triazolo[4,3-a]pyridin-8-yl)pyridin-2-yl)ethanol], the half-maximal inhibitory concentration (IC50) in test [1] (setting [7]) was 19.9 nM; in test [2] (setting [8]) it was 17.3 nM; in test [3] (setting [9]), 41.6 nM.

Take `COc1cccc(F)c1CNc1ccc(-c2cnc(S(C)(=O)=O)cc2C)c2nncn12` [Example 184, N-(2-fluoro-6-methoxybenzyl)-8-(4-methyl-6-(methylsulfonyl)pyridin-3-yl)-[1,2,4]triazolo[4,3-a] pyridin-5-amine]: the IC50 came out at 46.4 nM in test [1] (setting [7]), 25 nM in test [2] (setting [8]) and 77.7 nM in test [3] (setting [9]).

As for `COc1cccc(F)c1CNc1ccc(-c2ccc(S(C)(=O)=O)nc2C)c2nncn12` [Example 185, N-(2-fluoro-6-methoxybenzyl)-8-(2-methyl-6-(methylsulfonyl)pyridin-3-yl)-[1,2,4]triazolo[4,3-a] pyridin-5-amine], the results for the IC50 in test [1] (setting [7]), in test [2] (setting [8]) and in test [3] (setting [9]) were 7.9 nM, 3.6 nM and 18.5 nM, respectively.

Take `COc1cccc(F)c1CNc1ccc(-c2cn(C)nc2C)c2nncn12` [Example 186, 8-(1,3-dimethyl-1H-pyrazol-4-yl)-N-(2-fluoro-6-methoxybenzyl)-[1,2,4]triazolo[4,3-a] pyridin-5-amine]: the IC50 in test [1] (setting [7]) was 65.9 nM; in test [2] (setting [8]), 40.9 nM; in test [3] (setting [9]) it was 14 nM.

In the case of `COc1cccc(F)c1CNc1ccc(-c2c(C)n[nH]c2C)c2nncn12` [Example 187, 8-(3,5-dimethyl-1H-pyrazol-4-yl)-N-(2-fluoro-6-methoxybenzyl)-[1,2,4]triazolo[4,3-a] pyridin-5-amine], the figures for the IC50 in test [1] (setting [7]), in test [2] (setting [8]) and in test [3] (setting [9]) were 41.6 nM, 52.8 nM and 172 nM, respectively.

Turning to `COc1cccc(F)c1CNc1ccc(-c2cnn(C)c2C)c2nncn12` [Example 188, 8-(1,5-dimethyl-1H-pyrazol-4-yl)-N-(2-fluoro-6-methoxybenzyl)-[1,2,4]triazolo[4,3-a] pyridin-5-amine], the IC50 was determined as 55.2 nM in test [1] (setting [7]), 34.8 nM in test [2] (setting [8]) and 93.1 nM in test [3] (setting [9]).

Consider `COc1cccc(F)c1CNc1ccc(-c2c[nH]nc2C)c2nncn12` [Example 189, N-(2-fluoro-6-methoxybenzyl)-8-(3-methyl-1H-pyrazol-4-yl)-[1,2,4] triazolo[4,3-a]pyridin-5-amine], for which the IC50 in test [1] (setting [7]) is 53.6 nM; in test [2] (setting [8]), 56.4 nM; in test [3] (setting [9]), 71.1 nM.

Take `COc1ccncc1-c1ccc(NCc2c(F)cccc2OC)n2cnnc12` [Example 190, N-(2-fluoro-6-methoxybenzyl)-8-(4-methoxypyridin-3-yl)-[1,2,4] triazolo[4,3-a]pyridin-5-amine]: the values for the IC50 in test [1] (setting [7]), in test [2] (setting [8]) and in test [3] (setting [9]) were 41.5 nM, 13.1 nM and 240 nM, respectively.

For the compound `COc1cccc(F)c1CNc1ccc(-c2ccccc2Cl)c2nncn12` [Example 192, 8-(2-chlorophenyl)-N-(2-fluoro-6-methoxybenzyl)-[1,2,4]triazolo[4,3-a]pyridin-5-amine], the half-inhibitory concentration (IC50) turned out to be 88.8 nM in test [1] (setting [7]), 118 nM in test [2] (setting [8]) and 348 nM in test [3] (setting [9]).

For `COc1cccc(F)c1CNc1ccc(-c2ccc(C(=O)N(C)C)nc2)c2nncn12` [Example 194, 5-(5-((2-fluoro-6-methoxybenzyl)amino)-[1,2,4]triazolo[4,3-a]pyridin-8-yl)-N,N-dimethylpicolinamide], the results for the half-maximal inhibitory concentration (IC50) in test [1] (setting [7]), in test [2] (setting [8]) and in test [3] (setting [9]) were 16.5 nM, 6.3 nM and 49.4 nM, respectively.

The term IC50 denotes the midpoint of a concentration-inhibition curve.
